Source: patent US10004786B2 (Zealand Pharma A/S, priority 2009, dated 2018)
Numbered stars: 1 amine (or outer) side, 2 acyl side, 3 side chain; on linkers, the order of the positions; unused ones are H or OH. Bridge positions count the residues as written; N and C are the ends. Square brackets hold non-standard residues; d marks the D form. Side chains are listed from the residue outwards. Peptide text beside a SMILES is read from it. * marks the point of attachment. γGlu = O=C(O)[C@H](CCC(=O)[*:2])N[*:1]; Palmitoyl = CCCCCCCCCCCCCCCC(=O)*; Aib = CC(C)(N)C(=O)O

What was measured:
[1] = Pharmacokinetic screening in mouse plasma after subcutaneous administration; assay type: in vivo; settings: sc, mice, 100 nmol/kg s.c., * = only two time points used for calculation
Description: Mice were dosed 100 nmol/kg subcutaneously (s.c.). The mice were sacrificed and the blood collected at the following time points; 0.5, 2, 4, 6, 16 and 24 h. Plasma samples were analyzed using protein precipitation, followed by solid phase extraction (SPE) and liquid chromatography mass spectrometry (LC-MS).
Pharmacokinetic profiles were determined for various acylated compounds.

[2] = Body weight gain in high fat fed C57BL/6J mice (10 days); assay type: in vivo; settings: short term high fat-fed C57BL/6J mice; for body weight gain, high dose: 5 nmol/kg b.i.d. s.c.
Description: C57Bl/6J male mice, 6 weeks old, were acclimatized in their new environment for 4 weeks with free access to high fat diet (HFD) (D12492, Research Diet Inc., New Brunswick, USA) and water. The animals were injected s.c. with 100 μl vehicle for a period of three days to acclimatize the animals to handling and injections, prior to initiation of peptide treatment. […] Throughout the study, body weights were recorded daily and used to administer the body weight-corrected doses of peptide. All animals were sacrificed on the same day by cervical dislocation.
C57Bl/6J male mice on high fat diet (HFD) were treated (b.i.d.; s.c.) (0.5 and 5 nmol/kg) or vehicle. Body weights were recorded daily and used to administer the body weight-corrected doses of peptide throughout the study. Data are shown as mean±SEM in FIG. 7.

SMILES	half-life [1] [h]	body weight gain, high dose [2]	body weight gain, low dose ([2]; 0.5 nmol/kg b.i.d. s.c.)
CCCCCCCCCCCCCCCC(=O)N[C@@H](CCC(=O)NCCCC[C@H](NC(=O)[C@H](CC(=O)O)NC(=O)[C@H](CC(C)C)NC(=O)[C@H](Cc1ccc(O)cc1)NC(=O)[C@H](CCCCN)NC(=O)[C@H](CO)NC(=O)[C@H](Cc1ccc(O)cc1)NC(=O)[C@H](CC(=O)O)NC(=O)[C@H](CO)NC(=O)[C@@H](NC(=O)[C@H](Cc1ccccc1)NC(=O)[C@@H](NC(=O)CNC(=O)[C@H](CCC(N)=O)NC(=O)[C@H](CO)NC(=O)[C@@H](N)Cc1c[nH]cn1)[C@@H](C)O)[C@@H](C)O)C(=O)N[C@@H](CCCCN)C(=O)N[C@@H](C)C(=O)N[C@@H](C)C(=O)N[C@@H](Cc1c[nH]cn1)C(=O)N[C@@H](CC(=O)O)C(=O)N[C@@H](Cc1ccccc1)C(=O)N[C@H](C(=O)N[C@@H](CCC(=O)O)C(=O)N[C@@H](Cc1c[nH]c2ccccc12)C(=O)N[C@@H](CC(C)C)C(=O)N[C@@H](CC(C)C)C(=O)N[C@@H](CCCNC(=N)N)C(=O)N[C@@H](C)C(N)=O)C(C)C)C(=O)O [Compound 2] (H-HSQGTFTSDYSKYLDK([γGlu-Palmitoyl])KAAHDFVEWLLRA-NH2)	5.8		
CCCCCCCCCCCCCCCC(=O)N[C@@H](CCC(=O)NCCCC[C@H](NC(=O)[C@H](CO)NC(=O)[C@H](CC(=O)O)NC(=O)[C@H](CC(C)C)NC(=O)[C@H](Cc1ccc(O)cc1)NC(=O)[C@H](CCCCN)NC(=O)[C@H](CO)NC(=O)[C@H](Cc1ccc(O)cc1)NC(=O)[C@H](CC(=O)O)NC(=O)[C@H](CO)NC(=O)[C@@H](NC(=O)[C@H](Cc1ccccc1)NC(=O)[C@@H](NC(=O)CNC(=O)[C@H](CCC(N)=O)NC(=O)[C@H](CO)NC(=O)[C@@H](N)Cc1c[nH]cn1)[C@@H](C)O)[C@@H](C)O)C(=O)N[C@@H](C)C(=O)N[C@@H](C)C(=O)N[C@@H](Cc1c[nH]cn1)C(=O)N[C@@H](CC(=O)O)C(=O)N[C@@H](Cc1ccccc1)C(=O)N[C@H](C(=O)N[C@@H](CCC(=O)O)C(=O)N[C@@H](Cc1c[nH]c2ccccc12)C(=O)N[C@@H](CC(C)C)C(=O)N[C@@H](CC(C)C)C(=O)N[C@@H](CCCNC(=N)N)C(=O)N[C@@H](C)C(N)=O)C(C)C)C(=O)O [Compound 3] (H-HSQGTFTSDYSKYLDSK([γGlu-Palmitoyl])AAHDFVEWLLRA-NH2)		significantly decreased body weight gain at the high dose	
CCCCCCCCCCCCCCCC(=O)N[C@@H](CCC(=O)NCCCC[C@H](NC(=O)[C@H](C)NC(=O)[C@H](C)NC(=O)[C@H](CCCCN)NC(=O)[C@H](CO)NC(=O)[C@H](CC(=O)O)NC(=O)[C@H](CC(C)C)NC(=O)[C@H](Cc1ccc(O)cc1)NC(=O)[C@H](CCCCN)NC(=O)[C@H](CO)NC(=O)[C@H](Cc1ccc(O)cc1)NC(=O)[C@H](CC(=O)O)NC(=O)[C@H](CO)NC(=O)[C@@H](NC(=O)[C@H](Cc1ccccc1)NC(=O)[C@@H](NC(=O)CNC(=O)[C@H](CCC(N)=O)NC(=O)[C@H](CO)NC(=O)[C@@H](N)Cc1c[nH]cn1)[C@@H](C)O)[C@@H](C)O)C(=O)N[C@@H](CC(=O)O)C(=O)N[C@@H](Cc1ccccc1)C(=O)N[C@H](C(=O)N[C@@H](CCC(=O)O)C(=O)N[C@@H](Cc1c[nH]c2ccccc12)C(=O)N[C@@H](CC(C)C)C(=O)N[C@@H](CC(C)C)C(=O)N[C@@H](CCCNC(=N)N)C(=O)N[C@@H](C)C(N)=O)C(C)C)C(=O)O [Compound 4] (H-HSQGTFTSDYSKYLDSKAAK([γGlu-Palmitoyl])DFVEWLLRA-NH2)	2		
CCCCCCCCCCCCCCCC(=O)N[C@@H](CCC(=O)NCCCC[C@H](NC(=O)[C@H](CC(C)C)NC(=O)[C@H](Cc1c[nH]c2ccccc12)NC(=O)[C@H](CCC(=O)O)NC(=O)[C@@H](NC(=O)[C@H](Cc1ccccc1)NC(=O)[C@H](CC(=O)O)NC(=O)[C@H](Cc1c[nH]cn1)NC(=O)[C@H](C)NC(=O)[C@H](C)NC(=O)[C@H](CCCCN)NC(=O)[C@H](CO)NC(=O)[C@H](CC(=O)O)NC(=O)[C@H](CC(C)C)NC(=O)[C@H](Cc1ccc(O)cc1)NC(=O)[C@H](CCCCN)NC(=O)[C@H](CO)NC(=O)[C@H](Cc1ccc(O)cc1)NC(=O)[C@H](CC(=O)O)NC(=O)[C@H](CO)NC(=O)[C@@H](NC(=O)[C@H](Cc1ccccc1)NC(=O)[C@@H](NC(=O)CNC(=O)[C@H](CCC(N)=O)NC(=O)[C@H](CO)NC(=O)[C@@H](N)Cc1c[nH]cn1)[C@@H](C)O)[C@@H](C)O)C(C)C)C(=O)N[C@@H](CCCNC(=N)N)C(=O)N[C@@H](C)C(N)=O)C(=O)O [Compound 5] (H-HSQGTFTSDYSKYLDSKAAHDFVEWLK([γGlu-Palmitoyl])RA-NH2)	5.3		
CCCCCCCCCCCCCCCC(=O)N[C@@H](CCC(=O)NCCCC[C@H](NC(=O)[C@H](CC(C)C)NC(=O)[C@H](CC(C)C)NC(=O)[C@H](Cc1c[nH]c2ccccc12)NC(=O)[C@H](CCC(=O)O)NC(=O)[C@@H](NC(=O)[C@H](Cc1ccccc1)NC(=O)[C@H](CC(=O)O)NC(=O)[C@H](Cc1c[nH]cn1)NC(=O)[C@H](C)NC(=O)[C@H](C)NC(=O)[C@H](CCCCN)NC(=O)[C@H](CO)NC(=O)[C@H](CC(=O)O)NC(=O)[C@H](CC(C)C)NC(=O)[C@H](Cc1ccc(O)cc1)NC(=O)[C@H](CCCCN)NC(=O)[C@H](CO)NC(=O)[C@H](Cc1ccc(O)cc1)NC(=O)[C@H](CC(=O)O)NC(=O)[C@H](CO)NC(=O)[C@@H](NC(=O)[C@H](Cc1ccccc1)NC(=O)[C@@H](NC(=O)CNC(=O)[C@H](CCC(N)=O)NC(=O)[C@H](CO)NC(=O)[C@@H](N)Cc1c[nH]cn1)[C@@H](C)O)[C@@H](C)O)C(C)C)C(=O)N[C@@H](C)C(N)=O)C(=O)O [Compound 6] (H-HSQGTFTSDYSKYLDSKAAHDFVEWLLK([γGlu-Palmitoyl])A-NH2)	4.8	only at the low dose	significantly decreased body weight gain

Second part, led by results:

half-life [1] [h]	SMILES	body weight gain, high dose [2]	body weight gain, low dose ([2]; 0.5 nmol/kg b.i.d. s.c.)
2.4	CCCCCCCCCCCCCCCC(=O)N[C@@H](CCC(=O)NCCCC[C@H](NC(=O)[C@H](CO)NC(=O)[C@H](CC(=O)O)NC(=O)[C@H](CC(C)C)NC(=O)[C@H](Cc1ccc(O)cc1)NC(=O)[C@H](CCCCN)NC(=O)[C@H](CO)NC(=O)[C@H](Cc1ccc(O)cc1)NC(=O)[C@H](CC(=O)O)NC(=O)[C@H](CO)NC(=O)[C@@H](NC(=O)[C@H](Cc1ccccc1)NC(=O)[C@@H](NC(=O)CNC(=O)[C@H](CCC(N)=O)NC(=O)C(C)(C)NC(=O)[C@@H](N)Cc1c[nH]cn1)[C@@H](C)O)[C@@H](C)O)C(=O)N[C@@H](C)C(=O)N[C@@H](C)C(=O)N[C@@H](CCCNC(=N)N)C(=O)N[C@@H](CC(=O)O)C(=O)N[C@@H](Cc1ccccc1)C(=O)N[C@H](C(=O)N[C@@H](C)C(=O)N[C@@H](Cc1c[nH]c2ccccc12)C(=O)N[C@@H](CC(C)C)C(=O)N[C@@H](CC(C)C)C(=O)N[C@@H](CCCNC(=N)N)C(=O)N[C@@H](C)C(N)=O)C(C)C)C(=O)O [Compound 9] (H-H[Aib]QGTFTSDYSKYLDSK([γGlu-Palmitoyl])AARDFVAWLLRA-NH2)		
6	CCCCCCCCCCCCCCCC(=O)N[C@@H](CCC(=O)NCCCC[C@H](NC(=O)[C@H](CC(C)C)NC(=O)[C@H](CC(C)C)NC(=O)[C@H](Cc1c[nH]c2ccccc12)NC(=O)[C@H](CCC(=O)O)NC(=O)[C@@H](NC(=O)[C@H](Cc1ccccc1)NC(=O)[C@H](CC(=O)O)NC(=O)[C@H](Cc1c[nH]cn1)NC(=O)[C@H](C)NC(=O)[C@H](C)NC(=O)[C@H](CCCCN)NC(=O)[C@H](CO)NC(=O)[C@H](CC(=O)O)NC(=O)[C@H](CC(C)C)NC(=O)[C@H](Cc1ccc(O)cc1)NC(=O)[C@H](CCCCN)NC(=O)[C@H](CO)NC(=O)[C@H](Cc1ccc(O)cc1)NC(=O)[C@H](CC(=O)O)NC(=O)[C@H](CO)NC(=O)[C@@H](NC(=O)[C@H](Cc1ccccc1)NC(=O)[C@@H](NC(=O)CNC(=O)[C@H](CCC(N)=O)NC(=O)C(C)(C)NC(=O)[C@@H](N)Cc1c[nH]cn1)[C@@H](C)O)[C@@H](C)O)C(C)C)C(=O)N[C@@H](C)C(N)=O)C(=O)O [Compound 12] (H-H[Aib]QGTFTSDYSKYLDSKAAHDFVEWLLK([γGlu-Palmitoyl])A-NH2)	significantly decreased body weight gain at the high dose	
6.4	CCCCCCCCCCCCCCCC(=O)N[C@@H](CCC(=O)NCCCC[C@H](NC(=O)[C@H](CO)NC(=O)[C@H](CC(=O)O)NC(=O)[C@H](CC(C)C)NC(=O)[C@H](Cc1ccc(O)cc1)NC(=O)[C@H](CCCCN)NC(=O)[C@H](CO)NC(=O)[C@H](Cc1ccc(O)cc1)NC(=O)[C@H](CC(=O)O)NC(=O)[C@H](CO)NC(=O)[C@@H](NC(=O)[C@H](Cc1ccccc1)NC(=O)[C@@H](NC(=O)CNC(=O)[C@H](CCC(N)=O)NC(=O)C(C)(C)NC(=O)[C@@H](N)Cc1c[nH]cn1)[C@@H](C)O)[C@@H](C)O)C(=O)N[C@@H](C)C(=O)N[C@@H](C)C(=O)N[C@@H](Cc1c[nH]cn1)C(=O)N[C@@H](CC(=O)O)C(=O)N[C@@H](Cc1ccccc1)C(=O)N[C@H](C(=O)N[C@H]1CCC(=O)NCCCC[C@@H](C(=O)N[C@@H](C)C(N)=O)NC(=O)[C@H](CC(C)C)NC(=O)[C@H](CC(C)C)NC(=O)[C@H](Cc2c[nH]c3ccccc23)NC1=O)C(C)C)C(=O)O [Compound 13] (H-H[Aib]QGTFTSDYSKYLDSK([γGlu-Palmitoyl])AAHDFVEWLLKA-NH2; lactam 24-28)		
